Measurements from ChEMBL document CHEMBL1909046, “DrugMatrix in vitro pharmacology data”.

Key:
Cytochrome P450 2C19 = Cytochrome P450 2C19 (Homo sapiens, UniProt P33261); conditions: bti-tn-5b1-4
Cytochrome P450 2D6 = Cytochrome P450 2D6 (Homo sapiens, UniProt P10635); conditions: bti-tn-5b1-4
Cytochrome P450 1A2 = target: T1, Cytochrome P450 1A2 (Homo sapiens, UniProt P05177); conditions: bti-tn-5b1-4
T1 sequence (P05177 whole entry): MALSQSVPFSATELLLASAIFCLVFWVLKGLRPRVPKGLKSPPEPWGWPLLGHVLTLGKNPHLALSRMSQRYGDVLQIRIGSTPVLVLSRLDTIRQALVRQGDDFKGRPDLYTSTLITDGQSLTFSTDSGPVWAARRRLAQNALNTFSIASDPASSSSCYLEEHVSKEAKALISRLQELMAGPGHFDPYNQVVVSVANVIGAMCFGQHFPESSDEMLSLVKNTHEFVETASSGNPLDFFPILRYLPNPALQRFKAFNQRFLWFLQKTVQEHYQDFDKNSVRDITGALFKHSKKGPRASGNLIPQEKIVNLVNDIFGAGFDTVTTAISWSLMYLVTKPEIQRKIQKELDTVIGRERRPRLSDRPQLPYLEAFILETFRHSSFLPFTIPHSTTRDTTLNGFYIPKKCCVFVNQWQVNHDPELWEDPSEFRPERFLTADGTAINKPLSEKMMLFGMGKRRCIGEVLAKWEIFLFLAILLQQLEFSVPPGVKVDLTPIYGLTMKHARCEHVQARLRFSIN

[1] = target: Voltage-gated inwardly rectifying potassium channel KCNH2 (Homo sapiens, UniProt Q12809); conditions: hek293
Voltage-gated inwardly rectifying potassium channel KCNH2, sequence (Q12809 whole entry): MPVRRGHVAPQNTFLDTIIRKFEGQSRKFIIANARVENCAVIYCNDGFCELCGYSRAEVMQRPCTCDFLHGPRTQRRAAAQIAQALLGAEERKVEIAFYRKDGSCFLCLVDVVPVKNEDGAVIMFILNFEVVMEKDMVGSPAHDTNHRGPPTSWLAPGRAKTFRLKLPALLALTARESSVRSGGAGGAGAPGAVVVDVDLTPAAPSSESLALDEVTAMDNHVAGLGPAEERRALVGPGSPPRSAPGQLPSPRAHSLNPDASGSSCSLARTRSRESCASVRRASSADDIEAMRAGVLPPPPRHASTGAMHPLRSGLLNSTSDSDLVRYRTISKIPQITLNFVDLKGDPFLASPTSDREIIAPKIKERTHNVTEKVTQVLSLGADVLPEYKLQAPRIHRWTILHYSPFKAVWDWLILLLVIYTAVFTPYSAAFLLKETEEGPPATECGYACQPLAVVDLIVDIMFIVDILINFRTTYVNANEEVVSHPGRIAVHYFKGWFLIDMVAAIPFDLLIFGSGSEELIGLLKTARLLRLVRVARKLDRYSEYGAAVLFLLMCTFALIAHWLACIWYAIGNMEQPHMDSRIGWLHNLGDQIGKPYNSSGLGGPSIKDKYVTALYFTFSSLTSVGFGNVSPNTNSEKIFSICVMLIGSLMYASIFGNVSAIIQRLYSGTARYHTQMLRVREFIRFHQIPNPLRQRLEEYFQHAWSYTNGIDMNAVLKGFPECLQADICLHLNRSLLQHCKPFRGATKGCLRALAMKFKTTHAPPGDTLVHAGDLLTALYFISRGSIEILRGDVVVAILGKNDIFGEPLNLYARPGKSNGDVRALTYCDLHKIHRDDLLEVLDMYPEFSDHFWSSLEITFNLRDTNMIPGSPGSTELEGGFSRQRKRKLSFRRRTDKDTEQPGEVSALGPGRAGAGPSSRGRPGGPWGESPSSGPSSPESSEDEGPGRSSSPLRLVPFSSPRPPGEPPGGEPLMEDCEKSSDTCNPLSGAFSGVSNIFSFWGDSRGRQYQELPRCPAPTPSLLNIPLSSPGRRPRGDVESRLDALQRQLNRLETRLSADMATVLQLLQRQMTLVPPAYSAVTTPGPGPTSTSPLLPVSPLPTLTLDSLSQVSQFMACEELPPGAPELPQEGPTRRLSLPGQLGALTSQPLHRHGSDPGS

Estrogen receptor = target: T2, Estrogen receptor (Homo sapiens, UniProt P03372); conditions: sf9
T2 sequence (P03372 whole entry): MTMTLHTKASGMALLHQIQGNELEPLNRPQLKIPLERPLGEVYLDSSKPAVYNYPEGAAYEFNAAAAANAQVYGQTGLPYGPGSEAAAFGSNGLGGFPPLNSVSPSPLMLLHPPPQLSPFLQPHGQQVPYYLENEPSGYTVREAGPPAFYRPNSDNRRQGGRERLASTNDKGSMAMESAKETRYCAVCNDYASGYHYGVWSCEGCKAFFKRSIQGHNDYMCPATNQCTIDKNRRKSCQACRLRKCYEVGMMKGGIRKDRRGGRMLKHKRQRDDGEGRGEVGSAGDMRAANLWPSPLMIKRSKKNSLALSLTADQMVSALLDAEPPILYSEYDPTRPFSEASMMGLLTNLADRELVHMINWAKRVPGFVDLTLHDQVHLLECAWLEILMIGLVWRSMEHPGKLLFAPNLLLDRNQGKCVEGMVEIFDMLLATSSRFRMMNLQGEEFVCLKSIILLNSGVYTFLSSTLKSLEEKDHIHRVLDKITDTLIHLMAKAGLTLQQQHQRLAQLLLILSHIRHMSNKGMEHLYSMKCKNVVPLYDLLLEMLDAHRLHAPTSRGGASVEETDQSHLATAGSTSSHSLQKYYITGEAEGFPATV

Glucocorticoid receptor = target: T3, Glucocorticoid receptor (Homo sapiens, UniProt P04150); conditions: hela s3
T3 sequence (P04150 whole entry): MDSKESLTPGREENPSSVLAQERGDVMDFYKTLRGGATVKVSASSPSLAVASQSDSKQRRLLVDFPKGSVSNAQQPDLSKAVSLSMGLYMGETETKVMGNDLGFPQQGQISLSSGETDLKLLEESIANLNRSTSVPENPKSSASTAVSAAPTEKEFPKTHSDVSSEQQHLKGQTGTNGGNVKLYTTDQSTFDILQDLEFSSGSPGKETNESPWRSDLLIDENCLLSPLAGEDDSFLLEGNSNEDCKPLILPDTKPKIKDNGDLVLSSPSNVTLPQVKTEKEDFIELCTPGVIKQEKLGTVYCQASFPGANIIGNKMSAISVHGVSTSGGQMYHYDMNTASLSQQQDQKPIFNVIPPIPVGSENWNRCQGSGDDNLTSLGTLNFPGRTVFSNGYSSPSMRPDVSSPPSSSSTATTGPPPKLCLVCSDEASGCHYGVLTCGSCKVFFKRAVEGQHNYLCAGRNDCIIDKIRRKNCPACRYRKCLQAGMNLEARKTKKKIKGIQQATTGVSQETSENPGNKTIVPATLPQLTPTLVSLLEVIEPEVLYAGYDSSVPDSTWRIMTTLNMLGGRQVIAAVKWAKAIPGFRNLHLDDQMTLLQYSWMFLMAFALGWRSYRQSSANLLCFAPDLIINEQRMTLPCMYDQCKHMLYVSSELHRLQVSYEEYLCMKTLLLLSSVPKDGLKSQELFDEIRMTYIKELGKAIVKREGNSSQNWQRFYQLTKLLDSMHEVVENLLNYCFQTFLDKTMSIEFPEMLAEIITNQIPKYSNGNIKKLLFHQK

Estrogen receptor beta = Estrogen receptor beta (Homo sapiens, UniProt Q92731); conditions: sf9
Estrogen receptor beta, sequence (Q92731 whole entry): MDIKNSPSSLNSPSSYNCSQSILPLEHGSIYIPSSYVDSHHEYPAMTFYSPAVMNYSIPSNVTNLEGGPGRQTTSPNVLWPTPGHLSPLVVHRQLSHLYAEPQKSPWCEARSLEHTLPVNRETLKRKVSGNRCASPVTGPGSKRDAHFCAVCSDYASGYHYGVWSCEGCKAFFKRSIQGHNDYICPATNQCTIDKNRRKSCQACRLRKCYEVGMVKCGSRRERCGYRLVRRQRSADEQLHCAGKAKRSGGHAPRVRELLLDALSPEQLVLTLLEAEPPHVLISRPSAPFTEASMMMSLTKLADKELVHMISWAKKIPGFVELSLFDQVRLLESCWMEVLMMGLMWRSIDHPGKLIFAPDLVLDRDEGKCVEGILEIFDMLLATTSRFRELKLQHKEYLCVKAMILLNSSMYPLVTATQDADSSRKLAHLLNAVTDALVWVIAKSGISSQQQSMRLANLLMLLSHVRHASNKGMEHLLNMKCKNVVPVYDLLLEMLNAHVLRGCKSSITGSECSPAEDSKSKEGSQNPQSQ

Cytochrome P450 3A4 = Cytochrome P450 3A4 (Homo sapiens, UniProt P08684); conditions: bti-tn-5b1-4
Cytochrome P450 3A4, sequence (P08684 whole entry): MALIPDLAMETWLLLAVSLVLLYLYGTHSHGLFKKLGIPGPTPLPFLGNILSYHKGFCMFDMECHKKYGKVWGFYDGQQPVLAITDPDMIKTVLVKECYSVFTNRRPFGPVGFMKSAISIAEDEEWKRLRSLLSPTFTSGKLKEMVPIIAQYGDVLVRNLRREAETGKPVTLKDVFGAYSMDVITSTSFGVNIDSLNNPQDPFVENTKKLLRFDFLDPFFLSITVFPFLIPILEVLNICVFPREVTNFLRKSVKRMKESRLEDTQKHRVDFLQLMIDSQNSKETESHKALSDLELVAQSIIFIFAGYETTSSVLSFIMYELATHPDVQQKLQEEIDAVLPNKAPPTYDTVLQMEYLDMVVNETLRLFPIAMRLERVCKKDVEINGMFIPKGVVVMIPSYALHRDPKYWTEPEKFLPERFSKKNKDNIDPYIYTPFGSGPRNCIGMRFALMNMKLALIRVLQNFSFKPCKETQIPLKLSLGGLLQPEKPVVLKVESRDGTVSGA

Cytochrome P450 2C9 = Cytochrome P450 2C9 (Homo sapiens, UniProt P11712); conditions: bti-tn-5b1-4
Cytochrome P450 2C9, sequence (P11712 whole entry): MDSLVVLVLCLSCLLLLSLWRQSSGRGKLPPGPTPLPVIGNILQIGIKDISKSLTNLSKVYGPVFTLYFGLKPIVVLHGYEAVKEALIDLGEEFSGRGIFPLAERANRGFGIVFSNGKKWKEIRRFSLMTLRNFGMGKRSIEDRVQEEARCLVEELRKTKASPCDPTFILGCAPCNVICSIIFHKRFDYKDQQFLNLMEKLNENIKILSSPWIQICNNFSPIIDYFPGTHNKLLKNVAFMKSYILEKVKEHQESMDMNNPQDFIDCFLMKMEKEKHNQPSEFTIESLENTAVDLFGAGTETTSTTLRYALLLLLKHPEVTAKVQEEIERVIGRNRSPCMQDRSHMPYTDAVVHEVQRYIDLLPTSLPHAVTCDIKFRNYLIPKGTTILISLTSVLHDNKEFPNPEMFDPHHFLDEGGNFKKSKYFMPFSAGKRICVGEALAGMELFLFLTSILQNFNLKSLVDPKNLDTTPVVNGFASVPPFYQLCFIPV
Further: in other assays of this panel Not Active means under 50% inhibition at 10 µM.

Cytochrome P450 2C19, sequence (P33261 whole entry): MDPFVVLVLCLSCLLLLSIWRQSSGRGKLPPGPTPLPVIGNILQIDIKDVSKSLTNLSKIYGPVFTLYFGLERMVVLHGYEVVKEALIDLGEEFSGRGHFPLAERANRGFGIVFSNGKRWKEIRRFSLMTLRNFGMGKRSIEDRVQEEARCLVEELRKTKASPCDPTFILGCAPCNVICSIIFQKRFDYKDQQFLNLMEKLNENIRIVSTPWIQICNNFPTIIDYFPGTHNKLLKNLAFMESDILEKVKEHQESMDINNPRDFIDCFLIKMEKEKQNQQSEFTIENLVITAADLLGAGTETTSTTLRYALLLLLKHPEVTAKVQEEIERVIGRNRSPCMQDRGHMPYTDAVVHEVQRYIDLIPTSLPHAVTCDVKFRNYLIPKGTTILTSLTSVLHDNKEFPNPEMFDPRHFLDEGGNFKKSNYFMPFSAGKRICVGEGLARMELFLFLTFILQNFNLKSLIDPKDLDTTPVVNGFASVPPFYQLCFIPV
Cytochrome P450 2D6, sequence (P10635 whole entry): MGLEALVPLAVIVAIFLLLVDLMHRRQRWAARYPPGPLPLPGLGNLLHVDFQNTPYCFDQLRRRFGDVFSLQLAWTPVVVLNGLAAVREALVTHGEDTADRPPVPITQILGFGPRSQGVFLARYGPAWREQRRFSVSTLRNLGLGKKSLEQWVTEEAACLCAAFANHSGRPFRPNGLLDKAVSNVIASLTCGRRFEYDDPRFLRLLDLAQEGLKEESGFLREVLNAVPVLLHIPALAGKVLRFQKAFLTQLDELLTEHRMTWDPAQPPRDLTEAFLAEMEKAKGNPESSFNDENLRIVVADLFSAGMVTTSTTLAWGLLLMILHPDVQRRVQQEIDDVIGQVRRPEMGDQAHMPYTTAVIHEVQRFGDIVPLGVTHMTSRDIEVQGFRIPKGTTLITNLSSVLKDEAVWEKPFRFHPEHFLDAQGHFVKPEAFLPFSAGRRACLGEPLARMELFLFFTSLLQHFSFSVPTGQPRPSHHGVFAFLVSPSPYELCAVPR

COC(=O)c1ccc(O)cc1 [METHYLPARABEN]
Not Active: IC50 (Cytochrome P450 2C19) | Ki (Cytochrome P450 2C19) | IC50 (Cytochrome P450 2D6) | Ki (Cytochrome P450 2D6) | IC50 (Cytochrome P450 1A2) | Ki (Cytochrome P450 1A2) | IC50 [1] | Ki [1] | IC50 (Estrogen receptor) | IC50 (Glucocorticoid receptor) | IC50 (Estrogen receptor beta) | IC50 (Cytochrome P450 3A4) | Ki (Cytochrome P450 3A4) | IC50 (Cytochrome P450 2C9) | Ki (Cytochrome P450 2C9)

CCC[C@@H]1C[C@@H](C(=O)N[C@@H]([C@H]2O[C@H](SC)[C@H](O)[C@@H](O)[C@H]2O)[C@@H](C)O)N(C)C1 [LINCOMYCIN]
Not Active: IC50 (Cytochrome P450 2C19) | Ki (Cytochrome P450 2C19) | IC50 (Cytochrome P450 2D6) | Ki (Cytochrome P450 2D6) | IC50 (Cytochrome P450 1A2) | Ki (Cytochrome P450 1A2) | IC50 [1] | Ki [1] | IC50 (Estrogen receptor) | IC50 (Glucocorticoid receptor) | IC50 (Estrogen receptor beta) | IC50 (Cytochrome P450 3A4) | Ki (Cytochrome P450 3A4) | IC50 (Cytochrome P450 2C9) | Ki (Cytochrome P450 2C9)

NNC(=O)c1ccncc1 [ISONIAZID]
Not Active: IC50 (Cytochrome P450 2C19) | Ki (Cytochrome P450 2C19) | IC50 (Cytochrome P450 2D6) | Ki (Cytochrome P450 2D6) | IC50 (Cytochrome P450 1A2) | Ki (Cytochrome P450 1A2) | IC50 [1] | Ki [1] | IC50 (Estrogen receptor) | IC50 (Glucocorticoid receptor) | IC50 (Estrogen receptor beta) | IC50 (Cytochrome P450 3A4) | Ki (Cytochrome P450 3A4) | IC50 (Cytochrome P450 2C9) | Ki (Cytochrome P450 2C9)

Cc1ncc([N+](=O)[O-])n1CC(C)O (stereo not given) [SECNIDAZOLE]
Not Active: IC50 (Cytochrome P450 2C19) | Ki (Cytochrome P450 2C19) | IC50 (Cytochrome P450 2D6) | Ki (Cytochrome P450 2D6) | IC50 (Cytochrome P450 1A2) | Ki (Cytochrome P450 1A2) | IC50 [1] | Ki [1] | IC50 (Estrogen receptor) | IC50 (Glucocorticoid receptor) | IC50 (Estrogen receptor beta) | IC50 (Cytochrome P450 3A4) | Ki (Cytochrome P450 3A4) | IC50 (Cytochrome P450 2C9) | Ki (Cytochrome P450 2C9)

CC(C)(C)NCC(O)c1ccc(O)c(CO)c1 (stereo not given) [ALBUTEROL]
Not Active: IC50 (Cytochrome P450 2C19) | Ki (Cytochrome P450 2C19) | IC50 (Cytochrome P450 2D6) | Ki (Cytochrome P450 2D6) | IC50 (Cytochrome P450 1A2) | Ki (Cytochrome P450 1A2) | IC50 [1] | Ki [1] | IC50 (Estrogen receptor) | IC50 (Glucocorticoid receptor) | IC50 (Estrogen receptor beta) | IC50 (Cytochrome P450 3A4) | Ki (Cytochrome P450 3A4) | IC50 (Cytochrome P450 2C9) | Ki (Cytochrome P450 2C9)

CC(C)(O)c1ccccc1CC[C@@H](SCC1(CC(=O)O)CC1)c1cccc(/C=C/c2ccc3ccc(Cl)cc3n2)c1 [MONTELUKAST]
Not Active: IC50 (Cytochrome P450 2C19) | Ki (Cytochrome P450 2C19) | IC50 (Cytochrome P450 2D6) | Ki (Cytochrome P450 2D6) | IC50 (Cytochrome P450 1A2) | Ki (Cytochrome P450 1A2) | IC50 [1] | Ki [1] | IC50 (Estrogen receptor) | IC50 (Glucocorticoid receptor) | IC50 (Estrogen receptor beta) | IC50 (Cytochrome P450 3A4) | Ki (Cytochrome P450 3A4) | IC50 (Cytochrome P450 2C9) | Ki (Cytochrome P450 2C9)

CC(C)[C@H](N)C(=O)OCCOCn1cnc2c(=O)nc(N)[nH]c21 [VALACYCLOVIR]
Not Active: IC50 (Cytochrome P450 2C19) | Ki (Cytochrome P450 2C19) | IC50 (Cytochrome P450 2D6) | Ki (Cytochrome P450 2D6) | IC50 (Cytochrome P450 1A2) | Ki (Cytochrome P450 1A2) | IC50 [1] | Ki [1] | IC50 (Estrogen receptor) | IC50 (Glucocorticoid receptor) | IC50 (Estrogen receptor beta) | IC50 (Cytochrome P450 3A4) | Ki (Cytochrome P450 3A4) | IC50 (Cytochrome P450 2C9) | Ki (Cytochrome P450 2C9)

COc1c(C)c2c(c(O)c1C/C=C(\C)CCC(=O)OCCN1CCOCC1)C(=O)OC2 [MYCOPHENOLATE MOFETIL]
Not Active: IC50 (Cytochrome P450 2C19) | Ki (Cytochrome P450 2C19) | IC50 (Cytochrome P450 2D6) | Ki (Cytochrome P450 2D6) | IC50 (Cytochrome P450 1A2) | Ki (Cytochrome P450 1A2) | IC50 [1] | Ki [1] | IC50 (Estrogen receptor) | IC50 (Glucocorticoid receptor) | IC50 (Estrogen receptor beta) | IC50 (Cytochrome P450 3A4) | Ki (Cytochrome P450 3A4) | IC50 (Cytochrome P450 2C9) | Ki (Cytochrome P450 2C9)

NC(=O)c1ccccc1O [SALICYLAMIDE]
Not Active: IC50 (Cytochrome P450 2C19) | Ki (Cytochrome P450 2C19) | IC50 (Cytochrome P450 2D6) | Ki (Cytochrome P450 2D6) | IC50 (Cytochrome P450 1A2) | Ki (Cytochrome P450 1A2) | IC50 [1] | Ki [1] | IC50 (Estrogen receptor) | IC50 (Glucocorticoid receptor) | IC50 (Estrogen receptor beta) | IC50 (Cytochrome P450 3A4) | Ki (Cytochrome P450 3A4) | IC50 (Cytochrome P450 2C9) | Ki (Cytochrome P450 2C9)

Oc1c(I)cc(I)c2cccnc12 [IODOQUINOL]
Not Active: IC50 (Cytochrome P450 2C19) | Ki (Cytochrome P450 2C19) | IC50 (Cytochrome P450 2D6) | Ki (Cytochrome P450 2D6) | IC50 (Cytochrome P450 1A2) | Ki (Cytochrome P450 1A2) | IC50 [1] | Ki [1] | IC50 (Estrogen receptor) | IC50 (Glucocorticoid receptor) | IC50 (Estrogen receptor beta) | IC50 (Cytochrome P450 3A4) | Ki (Cytochrome P450 3A4) | IC50 (Cytochrome P450 2C9) | Ki (Cytochrome P450 2C9)
